Assay results reported in patent US12391685B2, “Inhibitors of RNA-guided nuclease target binding and uses thereof” (THE BROAD INSTITUTE, INC., priority 2018, dated 2025).
Like-named read-outs stand apart in the source and are kept apart here.

How the values were obtained:
[1] = molecular target: T1, dCas9-based transcription-activation complex (Streptococcus pyogenes serotype M1, UniProt Q99ZW2, D10A, form not given); test: dCas9-based transcription activation of HBG1 in HEK293FT cells (RT-qPCR); assay type: cell-based, S. pyogenes; conditions: for EC50: read-out: EC50, inhibition of the transcription activation complex; for inhibition of transcriptional activation: 20 μM
T1 construct: "dSpCas9|Feng Zhang lab|NA"; The MS2-p65-HSF1(-GFP) effector is a separate chain recruited through MS2 aptamers in the sgRNA
Protocol: Transcription activation experiments and quantitative RT-PCR analyses. HEK293FT cells were maintained in high glucose DMEM with glutamax (Life Technologies) and supplemented with 10% FBS (Life Technologies), 1% penicillin-streptomycin (Life Technologies) and 1 mM sodium pyruvate (Life Technologies). For transcription activation experiments, 20,000 cells/well were plated in a poly D-lysine-coated 96-well plate. The cells were transiently transfected with a 1:1:1 mass ratio of the dCas9 plasmid, MS2-P65-HSF1 effector plasmid and the sgRNA plasmid targeting the HBG1 gene or an RFP control plasmid. A total of 0.3 μg plasmid DNA was transfected using Lipofectamine 2000 (Life Technologies) according to manufacturer's protocol. Immediately after transfection, the cells were treated with an appropriate dose of the small-molecule inhibitors. A DMSO solution of compound (20 mM) was resuspended in the 10% FBS containing growth media and thoroughly mixedbefore adding to the cells. After 48 h the cells were lysed and 5 μL of the cell lysate was used to perform reverse transcription using the RevertAid RT Reverse Transcription Kit (Thermo Fischer Scientific) as described by Joung J. et al. qPCR reactions were performed to quantify RNA expression using the TaqMan probes (Life Technologies, HBG1/HBG2: Hs00361131_g1, ACTB: Hs01060665_g1) and TaqMan Fast Advanced Master Mix (Life Technologies) in 5 μL multiplexed reactions and 384-well format using the LightCycler 480 Instrument II (Roche). For each sample, four technical replicates were performed. Data were analyzed using the LightCycler 480 software (Roche) by the ΔΔCt method: Ct values for the gene of interest (HBG1) were normalized to Ct values for the housekeeping gene (ACTB), and fold-changes in the expression level of gene of interest were normalized to RFP-transfected control. The data is reported as mean±S.E.M. for technical replicates.

SpCas9 [2] = molecular target: T2, SpCas9 (Streptococcus pyogenes serotype M1, UniProt Q99ZW2); test: eGFP-disruption assay in U2OS.eGFP.PEST cells; assay type: cell-based, S. pyogenes; design: host or cells: U2OS.eGFP.PEST; conditions: for inhibition at 15 µM: screen of structural analogs of BRD7087, 15 μM compound
Protocol: SpCas9 nuclease activity in eGFP-disruption assay. Approximately 200,000 U2OS.eGFP-PEST cells were nucleofected following two different methods either by nucleofecting plasmids or RNP using the SE Cell Line 4D-Nucleofector™ X Kit (Lonza) according to the manufacturer's protocol. In the plasmid nucleofection method, cells were nucleofected either with 440 ng of SpCas9 (Addgene Plasmid #43861) or 400 ng of SpCas9 along with 40 ng of sgRNA (pFYF1320 eGFP Site #1, Addgene Plasmid #47511). Cells nucleofected only with SpCas9-expressing plasmid were used as the transfection control. In the RNP nucleofection method, either […] SpCas9 or 20 pmol preformed SpCas9:gRNA (eGFP Site #1) complex were nucleofected. Approximately 20,000 transfected cells/well were plated in 4 replicates in a 96-well plate (Corning® 3904). Cells were incubated with the indicated amount of compound or DMSO for 24 h post transfection. A DMSO solution of compound (20 mM) was resuspended in the 10% FBS containing growth media and thoroughly mixed before adding to the cells. Cells were then fixed using 4% paraformaldehyde and imaged with the HCS NuclearMask™ Blue Stain (Life Technologies) as the nuclear counter-staining agent. Imaging was performed with an ImageXpress Micro automated microscope (Molecular Devices) at 10× magnification under three excitation channels (blue, green and red) acquiring nine sites per well. Images were analyzed using MetaXpress software and data were plotted using GraphPad Prism 6.
The Z′-value was calculated using the equation (1), where σ1 and σ2 are the standard deviations of DMSO control and SpCas9:gRNA control respectively. μ1 and μ2 are the mean % GFP^− cell population for DMSO control and SpCas9:gRNA control, respectively.

SpCas9 [3] = molecular target: T2, SpCas9; test: HiBiT assay in U2OS.eGFP.PEST cells; assay type: cell-based, S. pyogenes; design: host or cells: U2OS.eGFP.PEST; conditions: 24 h
Protocol: HiBiT assay. For SpCas9 expression in cells, the previously described JDS246 plasmid was used (Kleinstiver et al., 2015b). ssODN donor DNA template with the HiBiT tag was purchased as single-stranded Ultramer DNA Oligonucleotides (IDT) and resuspended to 40 μM in nuclease-free water. For the assay, 2×10^5 cells were co-transfected with 300 ng Cas9 plasmid, 75 ng sgRNA plasmid and 100 ng ssODN using the DN-100 program of Lonza 4D nucleofector according to the manufacturer's protocols. For negative controls, either the sgRNA plasmid or the ssODN was omitted. 20,000 transfected cells were plated in each well of a 96-well plate (Corning 3904). Immediately after transfection, cells were treated with varying concentrations of BRD0539 or BRD3433 and incubated at 37° C. with 5% CO2. 24 h after transfection, the cells were washed once with PBS and kept in 80 μL PBS. An equal volume of the Nano-Glo HiBiT Lytic Reagent (Promega N3030), consisting of Nano-Glo HiBiT Lytic Buffer, Nano-Glo HiBiT Lytic Substrate, and LgBiT Protein, was added according to the manufacturer's protocol, and cells were incubated for 10 min at ambient temperature with shaking at 600 rpm (Schwinn et al., 2018a). The cells were then incubated for an additional 10 min without shaking at room temperature to allow equilibration of the HiBiT and LgBiT in the lysate. The lysate was then transferred to a white plate (Corning 3990) and luminescence was measured using an Envision plate reader (Perkin-Elmer) with 1 s of integration time.

[4] = test system: U2OS.eGFP.PEST cells and HEK293T cells; test: Cell viability (ATP content); conditions: 5-20 μM, 24 h
SpCas9 [5] = molecular target: T2, SpCas9; test: NHEJ assay in HEK293T cells; assay type: cell-based, S. pyogenes; conditions: 2-10 μM, 24 h
Protocol: NHEJ assay. Approximately 8,000 cells/well were seeded in a 96-well plate 24 h before transient transfection with a total 100 ng of DN66 (mCherry—TAG—GFP reporter) and DN78 (SpCas9 and gRNA) plasmids (1:1) using Lipofectamine 2000 (Life Technologies) (Nguyen et al., 2016b). Transfected cells were incubated with the indicated amount of small molecule or DMSO for 24 h. Cells were then fixed using 4% paraformaldehyde and imaged with the HCS NuclearMask™ Blue Stain (Life Technologies) as the nuclear counter-staining agent. Imaging was performed with an ImageXpress Micro automated microscope (Molecular Devices) at 4× magnification under three excitation channels (blue, green and red) with 9 acquisition sites per well. Images were analyzed in the MetaXpress software to determine the % NHEJ and the data were plotted using GraphPad Prism 6. The Z′-value was calculated following the formula: Z′=1−(3(σ1+σ2))/(|μ1−μ2|) where σ1 and σ2 are the standard deviations of DN66 transfected wells and (DN66+DN78) transfected wells respectively. μ1 and μ2 are the mean % GFP cell population for DN66 transfected wells and (DN66+DN78) transfected wells respectively.

SpCas9 [6] = molecular target: T2, SpCas9; test: mKate2-disruption assay in HEK293T cells; assay type: cell-based, S. pyogenes; conditions: 1.5-5 μM, 24 h
Protocol: mKate2-disruption assay. Approximately 8,000 cells/well were seeded in a 96-well plate 24 h before transient transfection with 100 ng of either CgRNA (Addgene Plasmid #64955) or T1gRNA (Addgene Plasmid #62717) plasmids using Lipofectamine 2000 (Life Technologies). Transfected cells were allowed to grow in the indicated amount of small molecule or DMSO for 24 h. Cells were then fixed using 4% paraformaldehyde and imaged with the HCS NuclearMask™ Blue Stain (Life Technologies) as the nuclear counter-staining agent. Imaging was performed with an ImageXpress Micro automated microscope (Molecular Devices) at 20× magnification under two excitation channels (blue and red) with 9 acquisition sites per well. Images were analyzed using the MetaXpress software to determine the % mKate2 positive cells and data was plotted using GraphPad Prism 6. The Z′-value was calculated following the formula: Z′=1−(3(σ1+σ2))/(|μ1−μ2|) where σ1 and σ2 are the standard deviations of CgRNA transfected wells and T1gRNA transfected wells respectively. μ1 and μ2 are the mean % RFP^+ cell population for CgRNA transfected wells and T1gRNA transfected wells, respectively.

SpCas9 [7] = molecular target: T2, SpCas9; test: In vitro pull-down assay with preformed SpCas9:gRNA complex; assay type: binding, S. pyogenes; design: made in house; host or cells: E. coli Rosetta (DE3)
Protocol: In vitro pull-down assay. Pull-down of SpCas9 by biotinylated compound was performed by incubating a preformed SpCas9:gRNA complex with biotin-compound pre-loaded streptavidin magnetic beads. Initially, a 5 μM biotin compound was incubated with 120 μL streptavidin magnetic bead suspension for 30 min in 1× Cas9 activity buffer (20 mM Tris-HCl buffer, 150 mM KCl, 5 mM MgCl2, 1 mM DTT, pH 7.5). Next, beads were collected and washed with buffer twice and resuspended in 120 μL of 1× Cas9 activity buffer and distributed in 6 different tubes. A 0.3 μM of 480 μL of preformed SpCas9:gRNA complex were added to each tube along with the unlabeled BRD3433 compound (5 μM and 10 μM) in the competition experiment. The tubes were incubated at 4° C. for 12 h before collecting the beads and washed with 500 μL 1× Cas9 activity buffer. The beads were resuspended in 1× SDS gel loading buffer and denatured at 98° C. for 10 min. The samples were analyzed by electrophoresis followed by staining with Coomassie for 15 min before imaging.

[8] = 24 h, U2OS.eGFP.PEST cells, read-out: Average Inhibition activity
[9] = 24 h, U2OS.eGFP.PEST cells, read-out: Inhibition activity Rep 1
[10] = 24 h, U2OS.eGFP.PEST cells, read-out: Inhibition activity Rep 2

T2 sequence (Q99ZW2 whole entry): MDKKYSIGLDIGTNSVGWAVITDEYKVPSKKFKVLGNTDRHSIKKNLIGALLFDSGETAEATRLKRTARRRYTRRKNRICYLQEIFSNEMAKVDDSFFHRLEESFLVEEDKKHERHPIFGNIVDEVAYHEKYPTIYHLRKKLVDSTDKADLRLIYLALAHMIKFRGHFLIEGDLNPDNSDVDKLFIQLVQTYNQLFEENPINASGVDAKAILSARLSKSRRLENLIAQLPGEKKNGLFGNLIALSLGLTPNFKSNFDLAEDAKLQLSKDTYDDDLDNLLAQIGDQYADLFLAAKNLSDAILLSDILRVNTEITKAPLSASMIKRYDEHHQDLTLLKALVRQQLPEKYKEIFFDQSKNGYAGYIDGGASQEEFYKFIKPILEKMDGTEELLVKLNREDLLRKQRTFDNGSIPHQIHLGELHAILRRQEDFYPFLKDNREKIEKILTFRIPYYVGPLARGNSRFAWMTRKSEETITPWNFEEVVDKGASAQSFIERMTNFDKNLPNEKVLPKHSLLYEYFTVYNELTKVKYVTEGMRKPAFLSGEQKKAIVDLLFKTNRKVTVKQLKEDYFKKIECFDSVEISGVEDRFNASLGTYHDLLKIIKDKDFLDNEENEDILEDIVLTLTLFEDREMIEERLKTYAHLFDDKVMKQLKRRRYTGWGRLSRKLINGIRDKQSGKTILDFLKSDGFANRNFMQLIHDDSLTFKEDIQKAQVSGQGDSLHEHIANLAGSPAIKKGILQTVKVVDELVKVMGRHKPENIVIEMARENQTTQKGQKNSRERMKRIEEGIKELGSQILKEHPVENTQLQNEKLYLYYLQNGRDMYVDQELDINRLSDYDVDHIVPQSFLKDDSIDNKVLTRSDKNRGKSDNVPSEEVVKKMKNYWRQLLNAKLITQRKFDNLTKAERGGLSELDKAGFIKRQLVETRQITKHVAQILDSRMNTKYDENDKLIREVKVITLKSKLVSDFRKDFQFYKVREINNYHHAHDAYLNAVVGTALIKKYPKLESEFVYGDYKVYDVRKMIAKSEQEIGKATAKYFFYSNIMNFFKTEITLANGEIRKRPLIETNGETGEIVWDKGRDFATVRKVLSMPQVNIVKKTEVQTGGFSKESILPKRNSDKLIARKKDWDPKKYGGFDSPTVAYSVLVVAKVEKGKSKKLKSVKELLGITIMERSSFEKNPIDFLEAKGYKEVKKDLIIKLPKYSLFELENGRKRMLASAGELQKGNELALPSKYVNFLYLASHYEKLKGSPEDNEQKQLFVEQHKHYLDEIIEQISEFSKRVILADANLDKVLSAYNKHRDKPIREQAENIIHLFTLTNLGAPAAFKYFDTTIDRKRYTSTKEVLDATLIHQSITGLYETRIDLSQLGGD
T1 sequence (Q99ZW2 whole entry, form open, one chain of several, change not shown): as the sequence (Q99ZW2 whole entry) above

Row | SMILES | EC50 [1] [µM] | inhibition at 15 µM (SpCas9 [2]; [8]) [%] | inhibition at 15 µM (SpCas9 [2]; [9]) [%] | inhibition at 15 µM (SpCas9 [2]; [10]) [%] | inhibition of transcriptional activation [1] [%] | other results
1 | CN1c2ccc(C#Cc3cccnc3)cc2[C@H]2[C@H](CCN2C(=O)Nc2cc(F)ccc2F)[C@@H]1CO [BRD0048, (3aS,4R,9bR)—N-(2,5-difluorophenyl)-4-(hydroxymethyl)-5-methyl-8-(pyridin-3-ylethynyl)-2,3,3a,4,5,9b-hexahydro-1H-pyrrolo[3,2-c]quinoline-1-carboxamide] | 9 | 76.4 | 84.1 | 68.7 | – | –
2 | COc1cccc(-c2ccc3c(c2)[C@H]2[C@H](CCN2C(=O)Cc2ccncc2)[C@H](CO)N3C)c1 [BRD3433, 1-((3aS,4R,9bR)-4-(hydroxymethyl)-8-(3-methoxyphenyl)-5-methyl-2,3,3a,4,5,9b-hexahydro-1H-pyrrolo[3,2-c]quinolin-1-yl)-2-(pyridin-4-yl) ethan-1-one] | – | 78.6 | 82.2 | 74.9 | – | inhibition of SpCas9 in the HiBiT assay (in words) (SpCas9 [3]): dose-dependent inhibition; EC50 (SpCas9 [2]; EC50, dose-dependent inhibition of SpCas9, U2OS.eGFP.PEST cells, 24 h, tested from 2.8-17.3 μM): 9.3 µM; improvement in potency over BRD7087 (SpCas9 [2]; eGFP-disruption assay): 1.8 fold; EC50 (SpCas9 [2]; eGFP-disruption assay, read-out: apparent EC50): 11 µM
3 | COc1ccc(-c2ccc3c(c2)[C@H]2[C@H](CCN2Cc2ccncc2)[C@@H](CO)N3)cc1 [BRD5779, ((3aR,4S,9bR)-8-(4-Methoxyphenyl)-1-(pyridin-4-ylmethyl)-2,3,3a,4,5,9b-hexahydro-1H-pyrrolo[3,2-c]quinolin-4-yl) methanol] | – | – | – | – | ~60 | cytotoxicity (in words) [4]: non-cytotoxic; inhibition of SpCas9 in the NHEJ assay (in words) (SpCas9 [5]): dose-dependent inhibition; inhibition of SpCas9 in the eGFP-disruption assay (in words) (SpCas9 [2]; U2OS.eGFP.PEST cells): dose-dependent inhibition; inhibition of SpCas9 in the mKate2 disruption assay (in words) (SpCas9 [6]): dose-dependent inhibition
4 | CN1c2ccc(C#Cc3cccnc3)cc2[C@@H]2[C@@H](CCN2C(=O)C2CCCCC2)[C@H]1CO [BRD20322, Cyclohexyl((3aR,4S,9bS)-4-(hydroxymethyl)-5-methyl-8-(pyridin-3-ylethynyl)-2,3,3a,4,5,9b-hexahydro-1H-pyrrolo[3,2-c]quinolin-1-yl) methanone] | 12.2 | 53.5 | 47.6 | 59.4 | 89 | –
5 | COc1cccc(-c2ccc3c(c2)[C@H]2[C@H](CCN2C(=O)Cc2ccncc2)[C@H](CNC(=O)CCOCCOCCOCCNC(=O)CCCC[C@@H]2SC[C@@H]4NC(=O)N[C@@H]42)N3C)c1 [biotinylated BRD3433, N-(1-((3aS,4R,9bR)-8-(3-methoxyphenyl)-5-methyl-1-(2-(pyridin-4-yl)acetyl)-2,3,3a,4,5,9b-hexahydro-1H-pyrrolo[3,2-c]quinolin-4-yl)-3-oxo-6,9,12-trioxa-2-azatetradecan-14-yl)-5-((3aS,4S,6aR)-2-oxohexahydro-1H-thieno[3,4-d]imidazol-4-y1) pentanamide] | – | – | – | – | – | pull-down of SpCas9 (gel electrophoresis) (SpCas9 [7]): enrichment of SpCas9 in the eluent
